Data reported in US20040084383A1, “Method to inhibit growth of microorganisms in aqueous systems and on substrates using a persulfate and a bromide” (BUCKMAN LABORATORIES INTERNATIONAL, INC., priority 2002, published 2004).

System: Pseudomonas aeruginosa
Assay: Antimicrobial efficacy in inoculated pulp slurry (24 hr incubation, plated in nutrient agar, cfu/ml counted)
Type: cell-based
Method: A concentrated solution of active biocidal composition was prepared by mixing 44% (w/v) of aqueous ammonium persulfate with 40% (w/v) aqueous sodium bromide in equal volume. The final mixture contains 22% ammonium persulfate and 20% NaBr at pH 2.2. The molar ratio of the components was 1:2 for (NH4)2S2O8:NaBr. Four hours after mixing, the concentrated solution was diluted with water to contain 5% ammonium persulfate. This diluted solution (5%) was then added to 50 ml pulp slurry to give a biocidal concentration of 10 ppm (as ammonium persulfate) in pulp slurry. The pulp slurry was then inoculated with 3×10^6 cells/ml of Pseudomonas aeruginosa, incubated at room temperature for 24 hr, plated in nutrient agar. The colony forming units per milliliter (cfu/ml) was counted and compared with each individual component acting alone.
The pulp slurry contains white bleached dry pulp at 5 g/L; cationic starch at 10 bl/ton dry pulp; CaCO3 at 300 bl/ton dry pulp; ASA size at 3-4 lb/ton dry pulp; retention aids at 0.5-1.0 bl/ton dry pulp; defoamer at 250 g/ton dry pulp. The pulp slurry has a consistency of about 0.5 to 0.7%. The final pH of the pulp substrate after autoclave is about 8.0. […] Neither component acting alone provides significant antimicrobial efficacy.
The antimicrobial efficacy of the mixture containing 22% (w/v) aqueous ammonium persulfate and 20% (w/v) aqueous NaBr was tested at different times after mixing, aging times. The mixture preparation, at pH 2.2, and the test system are the same as that described in Example 1. At each time, a portion of the mixture was taken and diluted to 5% (as ammonium persulfate). The diluted solution was then added to pulp slurry to give a final concentration of 5, 10, 20, and 40 ppm (as ammonium persulfate) in pulp slurry. […] At only 5 ppm level, it achieved 2.5 logs reduction, which represents greater than 99% kill. […] It requires about 4 hr to provide significant activity. At about 8 hr after mixing, the mixed solution reached the maximum activity. The biocidal efficacy of the mixture was maintained or stabilized for at least 7 days.
Three mixtures were generated. Mixture #1 was prepared by mixing 22% (NH4)2S2O8 with 20% NaBr in equal volume. The final concentrations in mixture #1 were 11% (NH4)2S2O8 and 10% NaBr. Mixture #2 was made by mixing 33% (NH4)2S2O8 with 30% NaBr in equal volume. The final concentrations in Mixture #2 were 16.5% (NH4)2S2O8 and 15% NaBr. Mixture #3 was prepared by mixing 44% (NH4)2S2O8 with 40% NaBr in equal volume. In the final solution, Mixture #3 contains 22% (NH4)2S2O8 and 20% NaBr. All three mixtures, having a pH 2.2, were tested at a dosage of 20 ppm, and at 1, 2, 4, and 8 hr after mixing for their antimicrobial activity in the pulp slurry described in Example 1. […]

[1] = 1000 ppm as pure compound in pulp slurry
[2] = 100 ppm as pure compound in pulp slurry

SMILES	CFU/ml [1]	Log Reduction [1]	CFU/ml [2]	Log Reduction [2]
[Br-].[Na+] [NaBr, sodium bromide]	4.2 × 10^6 CFU/ml	0.00	–	–
N.N.O=S(=O)(O)OOS(=O)(=O)O [(NH4)2S2O8, ammonium persulfate]	–	–	4.5 × 10^5 CFU/ml	0.97
